Experimental data as given in PMC8042122 (Scientific Reports, 2021).
“Also recorded” adds a separate entry of the source. Read-outs that look alike come from different tables or passages of the source. No end group written: not given here.

Legend:
[1] = test system: F. graminearum CBS185.32 strain; assay type: cell-based, Fusarium graminearum
[2] = test system: F. graminearum CBS185.32 strain; assay type: cell-based, Fusarium graminearum; remark: listed apart in the source
[3] = test system: F. graminearum CBS185.32 strain; assay type: cell-based, Fusarium graminearum; remark: listed apart in the source
[4] = test system: F. graminearum strain 8/1; conditions: cited from earlier work
bacterial growth = conditions: cited from earlier work

Row | Substance | DON production ([1]; 50 µM) | 15-ADON production ([2]; 50 µM) | Effect on fungal growth (fungal biomass weight) ([3]; 50 µM) | Effect on fungal growth (dry fungal biomass weight) [3] | further results
1 | C(CH3)GNFLKRTC(CH3)IC(CH3)VKK [TC3-CH3-123, TC3 with all Cys capped with CH3 groups] | significantly more | significantly more | – | – | –
2 | C(CH3)GNFLKRTCICVKK (disulfide) [TC3-CH3-1Ox, TC3-CH3-1 oxidized, cyclized through the non-capped Cys] | reduction | reduction | significantly less effect | – | Reduction of 15-ADON production ([2]; 50 µM): about 42%
3 | C(CH3)GNFLKRTCICVKK [TC3-CH3-1, TC3 with Cys1 capped with a methyl group] | reduction | reduction | significantly less effect | – | Reduction of 15-ADON production ([2]; 50 µM): about 33%
4 | CGNFLKRTC(CH3)ICVKK (disulfide) [TC3-CH3-2Ox, TC3-CH3-2 oxidized, cyclized through the non-capped Cys] | – | – | significantly less effect | – | –
5 | CGNFLKRTC(CH3)ICVKK [TC3-CH3-2, TC3 with Cys9 capped with a methyl group] | – | – | significantly less effect | – | –
6 | CGNFLKRTCIC(CH3)VKK (disulfide) [TC3-CH3-3Ox, TC3-CH3-3 oxidized, cyclized through the non-capped Cys] | – | – | significantly less effect | – | –
7 | CGNFLKRTCIC(CH3)VKK [TC3-CH3-3, TC3 with Cys11 capped with a methyl group] | – | – | significantly less effect | – | –
8 | CGNFLKRTCICVKK (disulfide (positions not given here)) [TC3Ox] | significantly decreased | significantly decreased | – | reduced effect | DON production ([1]; 25 µM): significantly decreased; 15-ADON production ([2]; 25 µM): significantly decreased
9 | CGNFLKRTCICVKK [TC3, γ-core of the Ixodes ricinus defensin DefMT3, reduced (linear) form] | trace amounts; also recorded: abrogated | trace amounts; also recorded: abrogated | – | significant dose-dependent inhibition | Reduction of fungal growth (fold) ([3]; 50 µM): 1.8 times; DON production ([1]; 12.5 µM): non-significant reduction; DON production ([1]; 25 µM): trace amounts; 15-ADON production ([2]; 12.5 µM): non-significant reduction; 15-ADON production ([2]; 25 µM): trace amounts; Effect on germination [4]: decrease germination; Effect on bacterial growth (bacterial growth): little or no effect
10 | CGNFLKRTCICVKT [TC3-K14T, TC3 with Lys 14 substituted by Thr] | – | – | – | no effect | –
